# Reference: US10548896B2, “Treatment of relapsed and/or refractory solid tumors and non-Hodgkin's lymphomas” (CELGENE QUANTICEL RESEARCH, INC., priority 2016, dated 2020)
# Where two headings read alike, the source gives them in different places.
# Legend:
# [1] = tested on: LXFS 573 SCLC patient-derived xenograft; conditions: for SS (number of study survivors): Day 133, N=8
# [2] = tested on: NCI-H1417 SCLC xenograft; conditions: etoposide monotherapy 24 mg/kg SC QDx3
# [3] = tested on: recombinant human CYP enzymes; assay: CYP reaction phenotyping with recombinant human CYP enzymes; format: in vitro ADME
# Source text: The role of non-CYP enzymes in the metabolism of Compound A is yet to be ascertained.
# [4] = Excretion in bile duct cannulated rats; format: in vivo; conditions: IV dosing, 24-hour period
# [5] = molecular target: CYP2D6 (Homo sapiens (Human), UniProt P10635); assay: CYP inhibition in pooled human liver microsomes, CYP2D6; format: in vitro ADME; conditions: up to 50 μM
# [6] = tested on: ST18 and FREM2 gene expression in MKL-1 tumors; assay: In vivo xenograft dose-response of PD biomarker genes, MKL-1 tumors; set-up: species or system female NSG mice; conditions: 1, 2.5, or 5 mg/kg PO BID x4.5, tumors 4 hours after last dose
# Source text: (§1) Female NSG mice bearing palpable hMCC MKL-1 and MS-1 tumors were randomized into four groups of three mice each. […] The fourth group was orally administered vehicle as a control on the BID schedule. Four hours after the last dosing, tumors were collected into RNAlater and stored frozen.
# (§2) Total RNA was eluted in RNase-free water and analyzed by qRT-PCR.
# [7] = Predicted human pharmacokinetics (allometric scaling)
# [8] = tested on: NCI-H1417 SCLC xenograft; assay: Efficacy in NCI-H1417 SCLC xenograft model; format: in vivo, female athymic nude mice
# [9] = Hemodynamic and ECG parameters in anesthetized guinea pigs; format: in vivo, male Dunkin Hartley guinea pigs
# Source text: Animals were monitored throughout the experiment.
# [10] = Exploratory toxicity study in dogs; conditions: 0.5 mg/kg/day 5 days on/2 days off, Day 12
# [11] = tested on: gene expression in MS-1 cells; assay: Modulation of gene expression by RNA-seq, MS-1 cells; format: cell-based, human; conditions: 10 and 100 nM, 3 days
# Protocol: (§3) Libraries were sequenced on an Illumina NextSeq® 500 System (Illumina, San Diego, Calif.) using 75 base paired-end RNA sequencing. Sequenced reads were mapped to the hg19 human genome build and differential expression was determined by analysis of variance across all replicates relative to the vehicle control.
# (§4) Sequenced reads were mapped to the hg19 human genome build using the Spliced Transcripts Alignment to a Reference (STAR) software tool (©Alexander Dobin, 2009-2016) and transcript counts were normalized using the Empirical Analysis of Digital Gene Expression Data in R (edgeR) and Differential gene expression analysis based on the negative binomial distribution (DESeq2) software tools ((Bioconductor, 2003-2017). Differential expression was determined by analysis of variance across all replicates relative to the vehicle control.
# [12] = tested on: LNCaP cells; assay: LNCaP cell proliferation with DHT and irradiation; format: cell-based, human; conditions: 100 nM Compound A with 10 nM DHT and 2Gy irradiation, 220 hours
# Protocol: LNCaP cells are androgen-sensitive human prostate adenocarcinoma cells. […] The proliferation of the LNCap cells was monitored for 220 hours.
# [13] = Exploratory toxicity study in mice; format: in vivo, CD-1 mice; conditions: for reduction in neutrophil counts versus concurrent controls: 60 mg/kg/dose QOD
# Source text: Additional animals were included for TK evaluation.
# [14] = tested on: GA0087 gastric NEC patient-derived xenograft; format: in vivo; conditions: 1.5 and 5 mg/kg orally QD
# [15] = tested on: LU2527 lung NEC patient-derived xenograft; format: in vivo; conditions: 1.5 and 5 mg/kg orally QD
# [16] = molecular target: MDR1 (human P-gp)-MDCK cells (Homo sapiens (Human), UniProt P08183); assay: Permeability in MDR1-MDCK cells; format: in vitro ADME; conditions: B→A direction
# [17] = 4-week toxicity study with 4-week recovery in mice (incl. toxicokinetics); conditions: QDx5/week schedule
# [18] = molecular target: CYP2C9 (Homo sapiens (Human), UniProt P11712); assay: CYP inhibition in pooled human liver microsomes, CYP2C9; format: in vitro ADME; conditions: up to 50 μM
# [19] = tested on: LXFS 573 SCLC patient derived xenograft; assay: Efficacy in LXFS 573 SCLC PDX model; format: in vivo, female NMRI-Foxn1nu mice; conditions: 5 to 10 mg/kg oral
# [20] = tested on: ST18 and FREM2 gene expression in MS-1 tumors; assay: In vivo xenograft dose-response of PD biomarker genes, MS-1 tumors; set-up: species or system female NSG mice; conditions: 1, 2.5, or 5 mg/kg PO BID x4.5, tumors 4 hours after last dose
# Source text: as §1, §2
# [21] = Pharmacokinetics after IV and oral dose, rats; format: in vivo, Sprague Dawley rats; conditions: IV dosing, rats (greater than liver blood flow)
# [22] = Metabolism in cryopreserved primary hepatocytes; format: in vitro ADME, mouse, rat, dog, monkey, human
# [23] = tested on: gene expression in MKL-1 cells; assay: Modulation of gene expression by RNA-seq, MKL-1 cells; format: cell-based, human; conditions: 10 and 100 nM, 3 days
# Protocol: as §3, §4
# [24] = tested on: LU2514 SCLC patient derived xenograft; assay: Efficacy in LU2514 HuPrime SCLC PDX model; format: in vivo, female BALB/c nude mice
# Protocol: Tumor growth inhibition analysis was performed on Day 28 post treatment, the last day of dosing.
# [25] = tested on: LU1480 SCLC patient derived xenograft; assay: Efficacy in LU1480 HuPrime SCLC PDX model; format: in vivo, female BALB/c nude mice
# [26] = 4-week oral gavage pivotal toxicity study with 4-week recovery in dogs (incl. ECG, toxicokinetics); format: in vivo, Beagle dogs
# Protocol: The QTc interval was calculated using the Fridericia method.
# Sequence of MDR1 (human P-gp)-MDCK cells (P08183 whole entry): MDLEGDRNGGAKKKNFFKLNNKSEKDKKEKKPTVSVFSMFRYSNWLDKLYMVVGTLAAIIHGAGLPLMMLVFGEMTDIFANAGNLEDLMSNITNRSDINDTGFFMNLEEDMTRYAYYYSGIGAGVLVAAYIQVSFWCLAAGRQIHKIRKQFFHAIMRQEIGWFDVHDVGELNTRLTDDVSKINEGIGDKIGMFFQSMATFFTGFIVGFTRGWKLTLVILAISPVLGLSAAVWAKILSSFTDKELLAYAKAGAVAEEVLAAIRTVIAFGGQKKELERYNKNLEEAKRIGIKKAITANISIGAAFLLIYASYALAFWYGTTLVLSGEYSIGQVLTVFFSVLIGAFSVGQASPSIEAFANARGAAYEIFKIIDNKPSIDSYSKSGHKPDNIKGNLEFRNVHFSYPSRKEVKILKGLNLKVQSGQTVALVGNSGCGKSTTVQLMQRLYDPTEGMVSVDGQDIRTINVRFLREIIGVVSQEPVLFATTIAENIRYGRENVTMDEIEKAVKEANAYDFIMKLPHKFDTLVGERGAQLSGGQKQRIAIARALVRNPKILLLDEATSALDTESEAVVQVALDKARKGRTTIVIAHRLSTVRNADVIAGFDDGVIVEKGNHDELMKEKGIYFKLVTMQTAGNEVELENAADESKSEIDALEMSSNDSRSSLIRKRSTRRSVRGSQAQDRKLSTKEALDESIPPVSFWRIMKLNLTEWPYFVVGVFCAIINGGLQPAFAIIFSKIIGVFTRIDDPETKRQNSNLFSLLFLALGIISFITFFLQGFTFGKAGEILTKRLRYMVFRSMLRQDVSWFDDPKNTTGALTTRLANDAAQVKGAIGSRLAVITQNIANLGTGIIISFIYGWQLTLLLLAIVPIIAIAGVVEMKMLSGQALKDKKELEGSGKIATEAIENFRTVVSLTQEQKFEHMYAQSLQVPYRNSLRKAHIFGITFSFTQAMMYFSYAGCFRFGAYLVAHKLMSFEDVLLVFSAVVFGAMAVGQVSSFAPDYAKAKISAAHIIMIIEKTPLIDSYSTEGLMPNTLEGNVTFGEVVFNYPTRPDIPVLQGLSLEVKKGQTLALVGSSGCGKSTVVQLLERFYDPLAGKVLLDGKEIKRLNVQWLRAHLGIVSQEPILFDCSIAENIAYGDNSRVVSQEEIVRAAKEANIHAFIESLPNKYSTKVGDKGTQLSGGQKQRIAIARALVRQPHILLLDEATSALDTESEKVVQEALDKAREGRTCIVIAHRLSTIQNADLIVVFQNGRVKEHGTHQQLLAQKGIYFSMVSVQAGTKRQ
# Sequence of CYP2D6 (P10635 whole entry): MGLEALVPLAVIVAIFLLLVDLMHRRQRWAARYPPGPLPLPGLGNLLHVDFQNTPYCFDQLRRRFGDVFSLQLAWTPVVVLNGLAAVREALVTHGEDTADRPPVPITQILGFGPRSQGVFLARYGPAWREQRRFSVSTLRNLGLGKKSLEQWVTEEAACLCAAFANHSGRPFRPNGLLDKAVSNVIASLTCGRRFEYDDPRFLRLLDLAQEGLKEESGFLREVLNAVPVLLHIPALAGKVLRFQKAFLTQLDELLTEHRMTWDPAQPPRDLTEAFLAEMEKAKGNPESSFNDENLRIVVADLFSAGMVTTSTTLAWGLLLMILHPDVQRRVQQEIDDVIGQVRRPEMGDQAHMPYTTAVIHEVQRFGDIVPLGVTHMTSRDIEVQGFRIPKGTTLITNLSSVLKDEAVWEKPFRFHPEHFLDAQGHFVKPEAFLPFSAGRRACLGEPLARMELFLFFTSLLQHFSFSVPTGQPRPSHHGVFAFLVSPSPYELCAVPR
# Sequence of CYP2C9 (P11712 whole entry): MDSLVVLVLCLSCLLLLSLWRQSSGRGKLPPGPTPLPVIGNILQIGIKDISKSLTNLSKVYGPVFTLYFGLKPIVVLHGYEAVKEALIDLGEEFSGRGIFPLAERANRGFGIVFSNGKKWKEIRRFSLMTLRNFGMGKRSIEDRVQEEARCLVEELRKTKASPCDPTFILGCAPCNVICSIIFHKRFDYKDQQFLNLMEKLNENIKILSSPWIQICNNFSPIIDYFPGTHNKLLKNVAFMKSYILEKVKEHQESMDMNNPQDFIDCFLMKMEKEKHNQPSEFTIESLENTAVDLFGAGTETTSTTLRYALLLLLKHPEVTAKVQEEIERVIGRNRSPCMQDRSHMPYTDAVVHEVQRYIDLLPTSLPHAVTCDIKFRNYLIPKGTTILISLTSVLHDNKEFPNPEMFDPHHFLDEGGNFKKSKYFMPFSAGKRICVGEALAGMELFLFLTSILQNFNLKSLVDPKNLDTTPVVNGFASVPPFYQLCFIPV
compound,measurement,setting,value
"COc1cc([C@@H]2c3cc4c(cc3[C@@H](O[C@@H]3O[C@@H]5CO[C@@H](C)O[C@H]5[C@H](O)[C@H]3O)[C@H]3COC(=O)[C@H]23)OCO4)cc(OC)c1O [Etoposide, etoposide]",median TTE,[1]; Etoposide at 24 mg/kg/day SC days 1-3 + Vehicle PO days 4-133,63 days
same,SS (number of study survivors),[1]; Etoposide at 24 mg/kg/day SC days 1-3 + Vehicle,0
same,% TGD,[2],92%
same,TGD,[2],24 days
same,median TTE,[2],50 days
"COc1ccc(-c2c(-c3ccc(C#N)c(F)c3)nc(N3CCC(N)CC3)n(C)c2=O)cc1F [Compound A, 4-[2-(4-amino-piperidin-1-yl)-5-(3-fluoro-4-methoxy-phenyl)-1-methyl-6-oxo-1,6-dihydro-pyrimidin-4-yl]-2-fluoro-benzonitrile]",enzyme responsible for oxidative metabolism,[3],CYP3A4 appears to be predominantly responsible
same,dose excreted intact (urine plus bile),[4],26.3 % of the dose
same,dose excreted intact in urine,[4],8.5 % of dose
same,direct inhibitory effect on CYP2D6,[5],little to no direct inhibitory effect
same,change in ST18 and FREM2 gene expression,[6],≥ 2 fold
same,predicted clearance,[7],9.4 mL/min/kg
same,Median Tumor Volumes (mm^3) Day 0,[8]; 2.5 mg base/kg PO QDx65,109.2 mm^3
same,mean body weight gain by end of study,[8]; 2.5 mg base/kg PO QDx65,1%
same,Median Tumor Volumes (mm^3) Day 0,[8]; 5 mg base/kg PO QDx65,108.2 mm^3
same,mean body weight gain by end of study,[8]; 5 mg base/kg PO QDx65,7.5%
same,maximum increase of QTcB interval versus time-matched vehicle,[9]; 10 mg base/kg IV,approximately 9%
same,maximum increase of QTcB interval versus time-matched vehicle,[9]; 15 mg base/kg IV,~13%
same,maximum increase of QTcB interval versus time-matched vehicle,[9]; 20 mg base/kg IV,~16%
same,maximum suppression of HR versus vehicle,"[9]; 20 mg base/kg IV, 9 minutes into 10-minute infusion",19%
same,effect on MAP or its components,[9]; 5 to 20 mg base/kg IV versus time-matched vehicle,No notable effect
same,body weight loss of female sacrificed moribund,[10],10.8%
same,SS (number of study survivors),[1]; Compound A at 5 mg/kg/day PO,7
same,MTV of study survivors on Day 133,[1]; Compound A monotherapy 5 mg/kg PO daily,1064 mm3
same,study survivors on Day 133,"[1]; Compound A monotherapy 5 mg/kg PO daily, n=8",seven
same,ST18 and FREM2 gene expression changes (upregulated),[11],at least 2 fold
same,LNCaP cell proliferation,[12],significantly inhibits LNCaP cell proliferation
same,increase in platelets on Day 8,"[13]; 10 mg/kg/day 5 days on/2 days off, after 2-day dosing holiday",> 2 fold
same,reduction in neutrophil counts versus concurrent controls,[13]; females,66%
same,reduction in neutrophil counts versus concurrent controls,[13]; males,83%
same,greatest reduction in neutrophil counts versus concurrent controls and pre-study values,[13]; 5 days on/2 days off schedule,approximately 90%
same,tolerability,[14],acceptably tolerated
same,tolerability,[15],acceptably tolerated
same,permeability,[16],16.5 ×10⁻⁶ cm/s
same,NOAEL,[17],5 mg base/kg/dose
same,STD10,[17],> 45 mg base/kg/dose
same,direct inhibitory effect on CYP2C9,[18],little to no direct inhibitory effect
same,mean body weight losses,[19],≤ 3%
same,change in ST18 and FREM2 gene expression,[20],≥ 2 fold
same,systemic clearance,[21],high
same,metabolic stability,[22],greater in rat and dog followed by human and monkeys while being least stable in mouse hepatocytes
same,ST18 and FREM2 gene expression changes (upregulated),[23],at least 2 fold
same,Median Tumor Volumes (mm^3) Day 1,[24]; 5 mg base/kg PO QDx28,173.2 mm^3
same,Median Tumor Volumes (mm^3) Day 1,[24]; 10 mg base/kg PO QDx28,173.7 mm^3
same,mean body weight losses,[24]; both studies with LU2514 model,< 10%
same,Median Tumor Volumes (mm^3) Day 1,[25]; 5 mg base/kg PO QDx21,89.5 mm^3
same,Median Tumor Volumes (mm^3) Day 1,[25]; 10 mg base/kg PO QDx21,87.1 mm^3
same,animals with moribund euthanasia,"[26]; 0.375 to 1.5 mg base/kg/dose QW, study Days 13 to 23",11 animals
same,NOEL for CV and respiratory changes,[26]; QW,0.75 mg base/kg/dose
